Reference: ChEMBL document CHEMBL3045578, “Synthesis and study of the antidepressant activity of novel 4,5-dihydro-7-alkoxy(phenoxy)-tetrazolo[1,5-a]quinoline derivatives” (2012)
Active and inactive are the calls of the source. The rule behind the calls is not given here.

Columns and labels:
Mus musculus [1] = test: Antidepressant activity in Mus musculus Kunming (mouse) assessed as immobility time at 40 mg/kg, po administered 30 min prior to testing measured for 6 min by forced swimming test (reference value: 177.67 +/- 10.88 secs); assay type: functional
Mus musculus [2] = test: Antidepressant activity in Mus musculus Kunming (mouse) assessed as decrease in immobility time at 40 mg/kg, po administered 30 min prior to testing measured for 6 min by tail suspension test (reference value: 110.67 +/- 11.52 secs); assay type: functional

COc1ccc(COc2ccc3c(c2)CCc2nnnn2-3)cc1
Time (Mus musculus [1]): 65.17 s | Time (Mus musculus [2]): 20 s

CCCCCCOc1ccc2c(c1)CCc1nnnn1-2
Time (Mus musculus [1]): 133.5 s

CCCOc1ccc2c(c1)CCc1nnnn1-2
Time (Mus musculus [1]): 181.5 s | Time (Mus musculus [2]): 93 s

Brc1cccc(COc2ccc3c(c2)CCc2nnnn2-3)c1
Time (Mus musculus [2]): 20 s

c1ccc(COc2ccc3c(c2)CCc2nnnn2-3)cc1
Time (Mus musculus [1]): 95.17 s | Time (Mus musculus [2]): 20 s

Clc1ccccc1COc1ccc2c(c1)CCc1nnnn1-2
Time (Mus musculus [1]): 65.17 s | Time (Mus musculus [2]): 20 s

Fc1ccc(COc2ccc3c(c2)CCc2nnnn2-3)cc1
Time (Mus musculus [1]): 65.17 s

CCCCCCCOc1ccc2c(c1)CCc1nnnn1-2
Time (Mus musculus [1]): 170.5 s | Time (Mus musculus [2]): 20 s

CCOc1ccc2c(c1)CCc1nnnn1-2
Time (Mus musculus [1]): 179.83 s | Time (Mus musculus [2]): 108.17 s

Nc1ccc(COc2ccc3c(c2)CCc2nnnn2-3)cc1
Time (Mus musculus [1]): 178 s | Time (Mus musculus [2]): 98.5 s

Brc1ccccc1COc1ccc2c(c1)CCc1nnnn1-2
Time (Mus musculus [1]): 65.17 s | Time (Mus musculus [2]): 20 s

Fc1cccc(COc2ccc3c(c2)CCc2nnnn2-3)c1
Time (Mus musculus [1]): 65.17 s | Time (Mus musculus [2]): 20 s

CCCCOc1ccc2c(c1)CCc1nnnn1-2
Time (Mus musculus [2]): 20 s

Fc1ccccc1COc1ccc2c(c1)CCc1nnnn1-2
Time (Mus musculus [2]): 20 s

CNCCC(Oc1ccc(C(F)(F)F)cc1)c1ccccc1 (configuration not stated) [FLUOXETINE]
Time (Mus musculus [1]): 93.17 s | Activity (Mus musculus [2]): Active

CCCCCOc1ccc2c(c1)CCc1nnnn1-2
Time (Mus musculus [1]): 135.67 s | Time (Mus musculus [2]): 20 s

Clc1ccc(COc2ccc3c(c2)CCc2nnnn2-3)cc1
Time (Mus musculus [2]): 20 s

CCCCCCCCOc1ccc2c(c1)CCc1nnnn1-2
Time (Mus musculus [1]): 172.83 s | Time (Mus musculus [2]): 107.5 s

Cc1ccc(COc2ccc3c(c2)CCc2nnnn2-3)cc1
Time (Mus musculus [1]): 65.17 s

Clc1cccc(COc2ccc3c(c2)CCc2nnnn2-3)c1
Time (Mus musculus [1]): 65.17 s
